Results as given in patent US20220024882A1, “NOVEL TUMOR ANTIGEN BINDING AGENTS AND USES THEREOF” (ITM Isotopen Technologien München AG, priority 2018, published 2022).

Experiments:
[1] = test system: PSMA-positive PC-3 PIP tumor cells; assay: Cell uptake and internalization, PSMA-positive cells; type: cell-based
Description: Cell uptake and internalization of ^177Lu-Ibu-PSMA, ^177Lu-Ibu-Dα-PSMA, ^177Lu-Ibu-Dβ-PSMA, ^177Lu-Ibu-N-PSMA and ^177Lu-Ibu-DAB-PSMA were investigated using PSMA-positive PC-3 PIP and PSMA-negative PC-3 flu tumor cells kindly provided by Prof. Dr. Martin Pomper (John Hopkins Institutions, Baltimore, U.S.; Eiber, M.; Fendler, W. P.; Rowe, S. P.; Calais, J.; Hofman, M. S.; Maurer, T.; Schwarzenboeck, S. M.; Kratowchil, C.; Herrmann, K.; Giesel, F. L. Prostate-specific membrane antigen ligands for imaging and therapy. J Nucl Med 2017, 58, (Suppl 2), 67S-76S). Each radioligand was investigated by the performance of experiments performed 3 times in triplicate with PC-3 PIP tumor cell and once in triplicate with PC-3 flu tumor cells.
Cell uptake and internalization of ^177Lu-Ibu-sPSMA were investigated using PSMA-positive PC-3 PIP and PSMA-negative PC-3 flu tumor cells kindly provided by Prof. Dr. Martin Pomper (Johns Hopkins University School of Medicine, Baltimore, Md., U.S.A.) (Eiber, et al.; J Nucl Med 2017, 58, (Suppl 2), 67S-76S). ^177Lu-Ibu-sPSMA was investigated by performing experiments 3 times in 6 replicates with PC-3 PIP tumor cells and 3 times in 6 replicates with PC-3 flu tumor cells.

[2] = test system: PC-3 PIP/flu tumor-bearing mice; assay: Biodistribution study in PC-3 PIP/flu tumor-bearing mice; type: in vivo, athymic nude Balb/c mice; details: for Blood / Bone / Heart / Intestines / Kidneys / Liver / Lung / Muscle / Salivary glands / Spleen / Stomach / Tumor-to-blood / Tumor-to-kidney / Tumor-to-liver: PC-3 PIP/flu tumor-bearing mice; for PC-3 flu Tumor: PSMA-negative tumor xenograft; for PC-3 flu Tumor / PC-3 PIP Tumor: mice; for PC-3 PIP Tumor: PSMA-positive tumor xenograft

## CC(C)Cc1ccc(C(C)C(=O)NCC[C@H](NC(=O)CN2CCN(CC(=O)O)CCN(CC(=O)O)CCN(CC(=O)O)CC2)C(=O)NCC2CCC(C(=O)N[C@@H](Cc3ccc4ccccc4c3)C(=O)NCCCC[C@H](NC(=O)N[C@@H](CCC(=O)O)C(=O)O)C(=O)O)CC2)cc1 (stereo partly drawn) [^177Lu-Ibu-sPSMA, metal not drawn]
[1]; 2 h incubation
  internalized fraction: 18%
[1]; 4 h incubation
  internalized fraction: 22%
[2]; 1 h p.i.
  Blood: 29±4 % IA/g
  Bone: 3.3 ± 0.4 % IA/g
  Heart: 9.3 ± 1.5 % IA/g
  Intestines: 2.9 ± 0.3 % IA/g
  Kidneys: 114±15 % IA/g
  Liver: 17±4 % IA/g
  Lung: 17 ± 3 % IA/g
  Muscle: 3.1 ± 0.7 % IA/g
  Salivary glands: 6.6 ± 0.5 % IA/g
  Spleen: 5.8 ± 1.2 % IA/g
  Stomach: 2.6 ± 0.5 % IA/g
  Tumor-to-blood: 2.2 ± 0.1
  Tumor-to-kidney: 0.56±0.09
  Tumor-to-liver: 3.7 ± 0.5
  PC-3 flu Tumor: 5.1 ± 0.7 % IA/g
  PC-3 PIP Tumor: 63±8 % IA/g
[2]; 4 h p.i.
  Blood: 7.2 ± 0.7 % IA/g
  Bone: 1.1 ± 0.2 % IA/g
  Heart: 2.4 ± 0.2 % IA/g
  Intestines: 1.1 ± 0.2 % IA/g
  Kidneys: 28 ± 2 % IA/g
  Liver: 7.2±0.5 % IA/g
  Lung: 4.9 ± 0.7 % IA/g
  Muscle: 0.84 ± 0.14 % IA/g
  Salivary glands: 1.9 ± 0.2 % IA/g
  Spleen: 2.1 ± 0.3 % IA/g
  Stomach: 1.3 ± 0.9 % IA/g
  Tumor-to-blood: 14 ± 3
  Tumor-to-kidney: 3.6 ± 0.2
  Tumor-to-liver: 14 ± 2
  PC-3 flu Tumor: 2.0 ± 0.3 % IA/g
  PC-3 PIP Tumor: 99 ± 7 % IA/g
[2]; 24 h p.i.
  Blood: 0.76 ± 0.07 % IA/g
  Bone: 0.27 ± 0.04 % IA/g
  Heart: 0.39 ± 0.04 % IA/g
  Intestines: 0.31 ± 0.07 % IA/g
  Kidneys: 10 ± 2 % IA/g
  Liver: 0.81 ± 0.09 % IA/g
  Lung: 0.79 ± 0.07 % IA/g
  Muscle: 0.14 ± 0.02 % IA/g
  Salivary glands: 0.37 ± 0.05 % IA/g
  Spleen: 0.72 ± 0.15 % IA/g
  Stomach: 0.50 ± 0.19 % IA/g
  Tumor-to-blood: 173 ± 18
  Tumor-to-kidney: 13 ± 2
  Tumor-to-liver: 163 ± 16
  PC-3 flu Tumor: 0.66 ± 0.07 % IA/g
  PC-3 PIP Tumor: 132±15 % IA/g
[2]; 96 h p.i.
  Blood: 0.27 ± 0.02 % IA/g
  Bone: 0.08 ± 0.01 % IA/g
  Heart: 0.12 ± 0.01 % IA/g
  Intestines: 0.13 ± 0.03 % IA/g
  Kidneys: 2.3 ± 0.3 % IA/g
  Liver: 0.22 ± 0.02 % IA/g
  Lung: 0.25 ± 0.03 % IA/g
  Muscle: 0.04 ± 0.02 % IA/g
  Salivary glands: 0.11 ± 0.02 % IA/g
  Spleen: 0.22 ± 0.03 % IA/g
  Stomach: 0.73 ± 0.82 % IA/g
  Tumor-to-blood: 210 ± 35
  Tumor-to-kidney: 25 ± 2
  Tumor-to-liver: 263 ± 42
  PC-3 flu Tumor: 0.15 ± 0.02 % IA/g
  PC-3 PIP Tumor: 57±9 % IA/g
